Reference: publication PMC7156458, “Synthetic biology based construction of biological activity-related library of fungal decalin-containing diterpenoid pyrones” (Nature Communications, 2020)

Molecular target: Aβ42 (Homo sapiens, UniProt P05067)
Assay: Th-T (thioflavin-T) assay of Aβ42 aggregation
Format: biochemical

Chain of Aβ42 (P05067 672-713): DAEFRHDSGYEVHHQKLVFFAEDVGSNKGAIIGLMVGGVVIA

With `C=C1CCC2C(C)(CCC=C(C)C)C(O)CCC2(C)C1Cc1c(OC)oc(CO)c(C(=O)OC)c1=O` (stereo not drawn) [Compound 13] the “Fig. 7a Th-T reading, mean of three wells” value (“Fig. 7a Th-T reading, mean” for short) (column suffix _20, reading M101) was 1.039, the “Fig. 7a Th-T reading, mean” value (column suffix _20, reading M102) was 1.036 and the “Fig. 7a Th-T reading, mean” value (column suffix _20, reading M103) was 1.04. For the same compound, the “Fig. 7a Th-T reading, mean” value (column suffix _20, reading M104) was 1.043, the “Fig. 7a Th-T reading, mean” value (column suffix _20, reading M105) was 1.05 and the “Fig. 7a Th-T reading, mean” value (column suffix _20, reading M106) was 1.043. The “Th-T fluorescence, mean of three wells (Fig. 7a)” value (“Th-T fluorescence … (Fig. 7a)” for short) (column suffix _50, measurement M19) was 0.2105, the “Th-T fluorescence … (Fig. 7a)” value (column suffix _50, measurement M20) was 0.229 and the “Th-T fluorescence … (Fig. 7a)” value (column suffix _50, measurement M21) was 0.2537. The “Th-T fluorescence … (Fig. 7a)” value (column suffix _50, measurement M22) was 0.2749, the “Th-T fluorescence … (Fig. 7a)” value (column suffix _50, measurement M23) was 0.2968 and the “Th-T fluorescence … (Fig. 7a)” value (column suffix _50, measurement M24) was 0.3154. The “Th-T fluorescence … (Fig. 7a)” value (column suffix _50, measurement M25) was 0.3353, the “Th-T fluorescence … (Fig. 7a)” value (column suffix _50, measurement M26) was 0.3518 and the “Th-T fluorescence … (Fig. 7a)” value (column suffix _50, measurement M27) was 0.3638. The “Th-T fluorescence … (Fig. 7a)” value (column suffix _50, measurement M28) was 0.3753, the “Th-T fluorescence … (Fig. 7a)” value (column suffix _50, measurement M29) was 0.3846 and the “Th-T assay signal, mean of three wells (Fig. 7a)” value (“Th-T assay signal, mean” below) (column suffix _50, reading M1) was 0.5109. The “Th-T assay signal, mean” value (column suffix _50, reading M2) was 0.3694, the “Th-T assay signal, mean” value (column suffix _50, reading M3) was 0.2987 and the “Th-T assay signal, mean” value (column suffix _50, reading M4) was 0.2463. For the same compound, the “Th-T assay signal, mean” value (column suffix _50, reading M5) was 0.2182, the “Th-T assay signal, mean” value (column suffix _50, reading M6) was 0.2003 and the “Th-T assay signal, mean” value (column suffix _50, reading M7) was 0.1883. The “Th-T assay signal, mean” value (column suffix _50, reading M8) was 0.1784, the “Th-T assay signal, mean” value (column suffix _50, reading M9) was 0.17 and the “Th-T assay signal, mean” value (column suffix _50, reading M10) was 0.1689. For the same compound, the “Th-T assay signal, mean” value (column suffix _50, reading M11) was 0.1659, the “Th-T assay signal, mean” value (column suffix _50, reading M12) was 0.1664 and the “Th-T assay signal, mean” value (column suffix _50, reading M13) was 0.1648. The “Th-T assay signal, mean” value (column suffix _50, reading M14) was 0.1691, the “Th-T assay signal, mean” value (column suffix _50, reading M15) was 0.173 and the “Th-T assay signal, mean” value (column suffix _50, reading M16) was 0.1783. For the same compound, the “Th-T assay signal, mean” value (column suffix _50, reading M17) was 0.1848, the “Th-T assay signal, mean” value (column suffix _50, reading M18) was 0.1952 and the “Fig. 7a Th-T reading, mean” value (column suffix _50, reading M85) was 0.4685. The “Fig. 7a Th-T reading, mean” value (column suffix _50, reading M86) was 0.4692, the “Fig. 7a Th-T reading, mean” value (column suffix _50, reading M87) was 0.4718 and the “Fig. 7a Th-T reading, mean” value (column suffix _50, reading M88) was 0.4737. For the same compound, the “Fig. 7a Th-T reading, mean” value (column suffix _50, reading M89) was 0.4759, the “Fig. 7a Th-T reading, mean” value (column suffix _50, reading M90) was 0.4735 and the “Fig. 7a Th-T reading, mean” value (column suffix _50, reading M91) was 0.4713. The “Fig. 7a Th-T reading, mean” value (column suffix _50, reading M92) was 0.4706, the “Fig. 7a Th-T reading, mean” value (column suffix _50, reading M93) was 0.4737 and the “Fig. 7a Th-T reading, mean” value (column suffix _50, reading M94) was 0.4775. The “Fig. 7a Th-T reading, mean” value (column suffix _50, reading M95) was 0.4772, the “Fig. 7a Th-T reading, mean” value (column suffix _50, reading M96) was 0.4744 and the “Fig. 7a Th-T reading, mean” value (column suffix _50, reading M97) was 0.4689. The “Fig. 7a Th-T reading, mean” value (column suffix _50, reading M98) was 0.4718, the “Fig. 7a Th-T reading, mean” value (column suffix _50, reading M99) was 0.4742 and the “Fig. 7a Th-T reading, mean” value (column suffix _50, reading M100) was 0.4783. For the same compound, the “Fig. 7a Th-T reading, mean” value (column suffix _50, reading M101) was 0.4707, the “Fig. 7a Th-T reading, mean” value (column suffix _50, reading M102) was 0.471 and the “Fig. 7a Th-T reading, mean” value (column suffix _50, reading M103) was 0.4747. The “Fig. 7a Th-T reading, mean” value (column suffix _50, reading M104) was 0.4762, the “Fig. 7a Th-T reading, mean” value (column suffix _50, reading M105) was 0.477 and the “Fig. 7a Th-T reading, mean” value (column suffix _50, reading M106) was 0.4781. For the same compound, the “Th-T fluorescence, mean of three wells” value (compound at 10, reading M41 of time course) was 1.211, the “Th-T fluorescence, mean of three wells” value (compound at 10, reading M42 of time course) was 1.2969 and the “Th-T fluorescence, mean of three wells” value (compound at 10, reading M43 of time course) was 1.3329. For the same compound, the “Th-T fluorescence, mean of three wells” value (compound at 10, reading M44 of time course) was 1.377, the “Th-T fluorescence, mean of three wells” value (compound at 10, reading M45 of time course) was 1.405 and the “Th-T fluorescence, mean of three wells” value (compound at 10, reading M46 of time course) was 1.436. The “Th-T fluorescence, mean of three wells” value (compound at 10, reading M47 of time course) was 1.47, the “Th-T fluorescence, mean of three wells” value (compound at 10, reading M48 of time course) was 1.487 and the “Th-T fluorescence, mean of three wells” value (compound at 10, reading M49 of time course) was 1.496. The “Th-T fluorescence, mean of three wells” value (compound at 10, reading M50 of time course) was 1.5062, the “Th-T fluorescence, mean of three wells” value (compound at 10, reading M51 of time course) was 1.523 and the “Th-T fluorescence, mean of three wells” value (compound at 10, reading M52 of time course) was 1.537. For the same compound, the “Th-T fluorescence, mean of three wells” value (compound at 10, reading M53 of time course) was 1.531, the “Th-T fluorescence, mean of three wells” value (compound at 10, reading M54 of time course) was 1.542 and the “Th-T fluorescence, mean of three wells” value (compound at 10, reading M55 of time course) was 1.541. The “Th-T fluorescence, mean of three wells” value (compound at 10, reading M56 of time course) was 1.545, the “Th-T fluorescence, mean of three wells” value (compound at 10, reading M57 of time course) was 1.551 and the “Th-T fluorescence, mean of three wells” value (compound at 10, reading M58 of time course) was 1.551. The “Th-T fluorescence, mean of three wells” value (compound at 10, reading M59 of time course) was 1.549, the “Th-T fluorescence, mean of three wells” value (compound at 10, reading M60 of time course) was 1.541 and the “Th-T fluorescence, mean of three wells” value (compound at 10, reading M61 of time course) was 1.554. The “Th-T fluorescence, mean of three wells” value (compound at 10, reading M62 of time course) was 1.56, the “Th-T fluorescence, mean of three wells” value (compound at 20, reading M41 of time course) was 0.3859 and the “Th-T fluorescence, mean of three wells” value (compound at 20, reading M42 of time course) was 0.4228. The “Th-T fluorescence, mean of three wells” value (compound at 20, reading M43 of time course) was 0.4511, the “Th-T fluorescence, mean of three wells” value (compound at 20, reading M44 of time course) was 0.4829 and the “Th-T fluorescence, mean of three wells” value (compound at 20, reading M45 of time course) was 0.5147. The “Th-T fluorescence, mean of three wells” value (compound at 20, reading M46 of time course) was 0.5564, the “Th-T fluorescence, mean of three wells” value (compound at 20, reading M47 of time course) was 0.5957 and the “Th-T fluorescence, mean of three wells” value (compound at 20, reading M48 of time course) was 0.6248. The “Th-T fluorescence, mean of three wells” value (compound at 20, reading M49 of time course) was 0.6553, the “Th-T fluorescence, mean of three wells” value (compound at 20, reading M50 of time course) was 0.6948 and the “Th-T fluorescence, mean of three wells” value (compound at 20, reading M51 of time course) was 0.7326. The “Th-T fluorescence, mean of three wells” value (compound at 20, reading M52 of time course) was 0.7726, the “Th-T fluorescence, mean of three wells” value (compound at 20, reading M53 of time course) was 0.8004 and the “Th-T fluorescence, mean of three wells” value (compound at 20, reading M54 of time course) was 0.8343. For the same compound, the “Th-T fluorescence, mean of three wells” value (compound at 20, reading M55 of time course) was 0.8641, the “Th-T fluorescence, mean of three wells” value (compound at 20, reading M56 of time course) was 0.9063 and the “Th-T fluorescence, mean of three wells” value (compound at 20, reading M57 of time course) was 0.941. The “Th-T fluorescence, mean of three wells” value (compound at 20, reading M58 of time course) was 0.9604, the “Th-T fluorescence, mean of three wells” value (compound at 20, reading M59 of time course) was 0.9808 and the “Th-T fluorescence, mean of three wells” value (compound at 20, reading M60 of time course) was 0.9918. The “Th-T fluorescence, mean of three wells” value (compound at 20, reading M61 of time course) was 1.018, the “Th-T fluorescence, mean of three wells” value (compound at 20, reading M62 of time course) was 1.031 and the “Th-T fluorescence, mean of three wells” value (compound at 50, reading M41 of time course) was 0.4483. For the same compound, the “Th-T fluorescence, mean of three wells” value (compound at 50, reading M42 of time course) was 0.4529, the “Th-T fluorescence, mean of three wells” value (compound at 50, reading M43 of time course) was 0.452 and the “Th-T fluorescence, mean of three wells” value (compound at 50, reading M44 of time course) was 0.4555. The “Th-T fluorescence, mean of three wells” value (compound at 50, reading M45 of time course) was 0.4534, the “Th-T fluorescence, mean of three wells” value (compound at 50, reading M46 of time course) was 0.4569 and the “Th-T fluorescence, mean of three wells” value (compound at 50, reading M47 of time course) was 0.4654. The “Th-T fluorescence, mean of three wells” value (compound at 50, reading M48 of time course) was 0.4625, the “Th-T fluorescence, mean of three wells” value (compound at 50, reading M49 of time course) was 0.4637 and the “Th-T fluorescence, mean of three wells” value (compound at 50, reading M50 of time course) was 0.4613. The “Th-T fluorescence, mean of three wells” value (compound at 50, reading M51 of time course) was 0.4698, the “Th-T fluorescence, mean of three wells” value (compound at 50, reading M52 of time course) was 0.4696 and the “Th-T fluorescence, mean of three wells” value (compound at 50, reading M53 of time course) was 0.4691.
